For this series the following is noted: Liquid, Closed cell (Static) method.

The text below walks through data of the NIST ThermoML archive (doi:10.1016/j.fluid.2016.01.028).

Structures are written as SMILES. ± gives the expanded uncertainty stated by the source.

As a reminder, the vapor or sublimation pressure is the equilibrium pressure above the liquid or solid. In the case of `C=C(F)C(F)(F)F` [2,3,3,3-tetrafluoro-1-propene], the “vapor or sublimation pressure” value by setting is: (283.15 K) 437.9 ± 1.2 kPa; (293.15 K) 591.5 ± 1.3 kPa; (303.15 K) 782.9 ± 1.5 kPa; (313.15 K) 1018.2 ± 1.8 kPa; (323.15 K) 1302.4 ± 2.1 kPa.

In the case of `FCC(F)(F)F` [1,1,1,2-tetrafluoroethane], the “vapor or sublimation pressure” value came out at 415.5 ± 1.2 kPa (283.15 K); 572.4 ± 1.3 kPa (293.15 K); 768.9 ± 1.5 kPa (303.15 K); 1015.5 ± 1.8 kPa (313.15 K); 1317.2 ± 2.1 kPa (323.15 K).

`CC(C)C` [2-methylpropane]: the “vapor or sublimation pressure” value is, setting by setting: (283.15 K) 220.9 ± 1.1 kPa; (293.15 K) 302.7 ± 1.1 kPa; (303.15 K) 404.4 ± 1.2 kPa; (313.15 K) 531.3 ± 1.3 kPa; (323.15 K) 684.2 ± 1.4 kPa.
